# From publication PMC7611821 (ACS synthetic biology, 2020)
# Target: Ec-F1F0 (E. coli ATP synthase) (Escherichia coli, UniProt P0ABB0+P0ABB4)
# Assay: NADH-driven ATP synthesis in proteoliposomes, luciferase luminescence
# Type: biochemical
# Conditions: turnover only; 50 μM ADP, 20 mM Tris-PO4 pH 7.4, 5 mM MgCl2, 200 μM NADH, 20 °C
# Ec-F1F0 (E. coli ATP synthase), sequence (P0ABB0 whole entry, looked up): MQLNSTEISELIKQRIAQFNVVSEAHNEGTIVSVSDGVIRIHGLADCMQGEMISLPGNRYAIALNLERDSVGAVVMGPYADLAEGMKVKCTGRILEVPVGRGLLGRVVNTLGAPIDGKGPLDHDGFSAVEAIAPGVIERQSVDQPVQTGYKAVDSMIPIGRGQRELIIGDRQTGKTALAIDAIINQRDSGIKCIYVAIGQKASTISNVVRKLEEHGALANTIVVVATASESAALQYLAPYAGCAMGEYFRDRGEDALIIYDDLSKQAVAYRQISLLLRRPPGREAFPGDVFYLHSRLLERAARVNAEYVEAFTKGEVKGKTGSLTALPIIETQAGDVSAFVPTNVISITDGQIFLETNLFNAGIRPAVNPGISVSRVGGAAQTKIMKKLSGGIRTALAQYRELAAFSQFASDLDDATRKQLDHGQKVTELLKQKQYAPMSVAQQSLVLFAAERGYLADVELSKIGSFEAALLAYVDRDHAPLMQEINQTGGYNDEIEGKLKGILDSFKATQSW
# Ec-F1F0 (E. coli ATP synthase), sequence (P0ABB4 whole entry, looked up): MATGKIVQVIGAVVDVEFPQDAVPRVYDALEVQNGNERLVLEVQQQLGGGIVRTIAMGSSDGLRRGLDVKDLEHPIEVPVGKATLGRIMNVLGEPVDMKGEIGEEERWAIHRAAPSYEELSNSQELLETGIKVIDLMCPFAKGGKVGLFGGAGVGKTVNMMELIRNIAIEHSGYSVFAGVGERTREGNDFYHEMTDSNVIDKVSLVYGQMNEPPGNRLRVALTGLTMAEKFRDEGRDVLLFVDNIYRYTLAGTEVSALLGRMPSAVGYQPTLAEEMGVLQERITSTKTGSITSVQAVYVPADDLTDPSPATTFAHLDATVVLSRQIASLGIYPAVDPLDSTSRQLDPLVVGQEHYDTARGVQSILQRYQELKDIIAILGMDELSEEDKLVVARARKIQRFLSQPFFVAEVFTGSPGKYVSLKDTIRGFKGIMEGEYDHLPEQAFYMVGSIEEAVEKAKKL
smiles,measurement,value
Nc1ncnc2c1ncn2[C@@H]1O[C@H](COP(=O)(O)OP(=O)(O)O)[C@@H](O)[C@H]1O [ADP],"NADH-driven ATP synthesis in proteoliposomes, luciferase luminescence",the Δp is used by Ec-F1F0 to generate ATP
